# Source: paper PMC4957937 (Bioorganic & medicinal chemistry, 2016)
# Starred links: 1 amine or outer side, 2 acyl side, 3 side chain; linkers in the order of their positions; H or OH if unused. Non-standard residues stand in square brackets, D forms with d. Residues, ends and D or L forms follow the SMILES beside them. Ahppa(3S,4S) = O=C(C[C@H](O)[C@H](Cc1ccccc1)N[*:1])[*:2]; dNMeF = CN[C@H](Cc1ccccc1)C(=O)O; NMeQ = CN[C@@H](CCC(N)=O)C(=O)O; Lac = C[C@H](O)C(=O)O
# Target: BACE1 (Homo sapiens, UniProt P56817)
# Test: Antiproteolytic activity assay against BACE1
# Format: biochemical
# Details: fold less potent against BACE1 than against cathepsins D and E
# BACE1, sequence (P56817 46-501): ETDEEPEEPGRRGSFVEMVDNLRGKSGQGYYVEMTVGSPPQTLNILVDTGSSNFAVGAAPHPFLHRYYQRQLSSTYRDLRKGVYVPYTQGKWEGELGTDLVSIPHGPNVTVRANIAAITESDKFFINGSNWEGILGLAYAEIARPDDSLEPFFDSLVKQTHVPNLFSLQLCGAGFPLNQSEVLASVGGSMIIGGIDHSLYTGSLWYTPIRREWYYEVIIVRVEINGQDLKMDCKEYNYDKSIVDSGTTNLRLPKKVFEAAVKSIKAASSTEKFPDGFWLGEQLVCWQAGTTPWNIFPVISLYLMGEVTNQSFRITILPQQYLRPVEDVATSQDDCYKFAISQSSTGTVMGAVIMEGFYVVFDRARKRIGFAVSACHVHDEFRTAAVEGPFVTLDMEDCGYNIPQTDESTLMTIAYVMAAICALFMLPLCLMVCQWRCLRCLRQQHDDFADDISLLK
compound,measurement,value
"CC[C@H](C)[C@H](NC(=O)C[C@H](O)[C@H](Cc1ccccc1)NC(=O)[C@H](CCC(N)=O)N(C)C(=O)[C@@H](NC(=O)[C@H](C)O)[C@@H](C)CC)C(=O)NCC(=O)N(C)[C@H](Cc1ccccc1)C(=O)N1CCC[C@H]1C(=O)OC [Tasiamide F (1), Tasiamide F] (H-[Lac]I[NMeQ][Ahppa(3S,4S)]IG[dNMeF]P-OMe)",Selectivity ratio IC50 BACE1/CatD–E,12–30
